# ± gives the expanded uncertainty stated by the source.
# Details: Liquid, Ebulliometric method (Recirculating still)
SMILES,vapor or sublimation pressure (283.15 K),vapor or sublimation pressure (293.15 K),vapor or sublimation pressure (303.15 K),vapor or sublimation pressure (313.15 K),vapor or sublimation pressure (323.15 K)
COC [dimethyl ether],372 ± 10 kPa,501 ± 10 kPa,687 ± 10 kPa,898 ± 10 kPa,1116.2 ± 10 kPa
CI [iodomethane],30 ± 10 kPa,47.5 ± 10 kPa,69.9 ± 10 kPa,95 ± 10 kPa,129 ± 10 kPa
